Tests used:
[1] = Critical micellar concentration by Nile red fluorescence; format: physicochemical
Procedure: We characterized the critical micellar concentration (CMC) of the polymers to evaluate their ability to self-assemble into polymolecular structures.
Nile red can be used to measure the CMC of surfactants and polymolecular architectures by following the fluorescence of the dye: the critical micelle concentration coincides with a strong increase in the intensity of the fluorescence (λex/em: 549/628 nm). Serial dilutions of polymers were made in the range of 2.5 to 7×10^−4 mg/mL. 200 μL of each sample were used with 10 μL of Nile Red solution in methanol (1×10^−5 M). Fluorescence was read in a 96-well plate (λex/em: 549/628 nm).

[2] = mouse, in vivo, iv
Procedure: The impact of CTA-PGMA-DODA and PMGA-DODA on the circulation profile of radiolabeled [^14C]-liposomes was studied in healthy Balb/c mice. In this study, the concentrations of radiolabeled liposomes in the blood were monitored for 6 hours after intravenous injection.
Healthy animals were housed in a controlled environment (22° C., 12 hours day/night cycle) with ad libitum access to food and water. A total of 11 healthy male mice were divided in three groups (3-3-5). As a blank, liposomes without polymer on the surface were injected intravenously by the subclavian vein at a concentration of 2 mg/kg of phospholipids. Approximately 30-50 μL of blood was collected at various times (0.25, 0.5, 1, 2, 4, 6 Hours). Six hours post-injection, blood was collected by cardiac puncture for a terminal timepoint. Animals were euthanized by a cardiac perfusion with 3 mL of isotonic phosphate-buffered saline solution pH=7.2 (potassium phosphate 1.1 mmol/L, NaCl 150 mmol/L, disodium phosphate 3 mmol/L) and organs were collected. Biological samples were digested at 58° C. (in Solvable®, Perkin Elmer®), bleached with 30% hydrogen peroxide, and assessed by scintillation counting, using Hionic Fluor® (Perkin Elmer®) as a scintillation cocktail.

Row | Molecule | CMC [1] | AUC0-6 h of the control liposomes relative to the liposome formulation prepared with the named polymer [2] | effect on circulation time of liposomes [2]
1 | CCCCCCCCCCCCOS(=O)(=O)[O-].[Na+] [SDS, sodium dodecyl sulfate] | 2 mg/mL | – | –
2 | DODA-Terminated Poly(Monoglycerol Acrylate) [PMGA-DODA6.5k] | – | 1.2 fold | do not seem to prolong the circulation time

Reference: patent US12668649B2, “Monoglycerol acrylate based polymer and uses thereof” (priority 2022, dated 2026)
